Experimental data: patent US20250082624A1, “METHODS OF TREATING COGNITIVE IMPAIRMENT” (NeuroTherapia, Inc., priority 2023, published 2025)
“And” between values parts separate entries of the source, which are not always exact repeats. Equal entries are not always repeated. “Also recorded” adds a separate entry of the source.

Columns and labels:
Type in all cases: in vivo, human
[1] = test system: volunteers and AD patients; test: Phase 1b MAD safety and tolerability (adverse events, ECG, safety labs)
Source text: (§1) Methods: All study procedures were approved by the IRB, and informed consent was obtained. Three cohorts of volunteers 45-80 years of age with well-controlled comorbidities (NOAD) and one cohort of AD patients diagnosed with cognitive impairment consistent with prodromal AD per International Working Group criteria or mild AD per National Institute on Aging—Alzheimer's Association criteria (n=6 active, 2 placebo per cohort) were enrolled. Participants were admitted to the study site for the duration of the dosing and returned 7-12 days after the last dose for a safety visit. Participants received NTRX-07 (10, 30, or 90 mg) or a placebo in a double-blinded randomization orally once daily for seven days. Subjects were assessed for changes in vital signs, including maneuvers to induce lightheadedness, electrocardiograms, 24-hour electroencephalograms (EEG), and safety laboratory studies. The second cohort returned and received a single repeat dose after a standard high-fat meal. The AD cohort also underwent cognitive testing and had blood samples for biomarkers drawn. Subjects had PK sampling done after the first and final dose of the study drug. An independent safety review committee conducted a blinded safety review of adverse events and plasma levels between each cohort.
(§2) Assessments: Subjects were assessed for changes in vital signs, orthostatic blood pressure, Romberg test, nystagmus, timed get up and go, electrocardiograms, electroencephalograms (EEG), and laboratory studies. Subjective questionnaires of drug effects (ARCI-M) were administered. Cohort B returned and received a single repeat dose after a standard high-fat meal. The AD cohort also underwent cognitive testing (MMSE, ADAS-COG, MOCA) and had blood samples for biomarkers drawn.
(§3) An informational letter was filed with the FDA to inform them of this study. The study was designed as follows: • 3 healthy cohorts (cohorts A-C) followed by AD cohort (cohort D) treated at MTD • 6 treated, 2 placebos in each cohort • Doses: 10, 30, 90 mg/treatment—latter doses can be adjusted based on PK assessment • In unit, 7 days of treatment • Monitor vertigo with various tests: (1) timed get-up and go, (2) Nystagmus test, (3) Romberg test, and (4) changes in orthostatic blood pressure (Day 1, 3 and 8) • Use 24 hr EEG monitoring for CNS safety assessment • Assess plasma biomarkers of inflammation and AD pre- and post-treatment in AD cohort • Assess changes on cognition post-treatment using MMSE and ADAS-cog • Fed/fasted study to determine food effects on PK as a subset of the Phase 1b

[2] = test system: volunteers and AD patients; test: Orthostatic blood pressure and vertigo tests (timed get-up and go, Nystagmus test, Romberg test); settings: Phase 1b
Method: as §2, §3

AD cohort [3] = test: Cognitive testing MOCA / MMSE in AD cohort; parameters: MOCA / MOCA Mean (StdDev): scale not given here; settings: 90 mg QD 7 days
Source text: as §1, §2
(§4) Exploratory endpoints include cognitive testing and potential plasma biomarkers of inflammation. The small group size (6 on treatment, 2 placebo) precludes statistical analysis, but the goals were to gain insights for future study design. Exploratory endpoints include: • MMSE, MOCA & ADAS-COG • IL-12p70, IL-10, IL-4, IL-5, INFg, IL-6, IL-8, IL-22, TNFa, IL-10, hCRP, Chitinase-3, TREM-2, IL-2, Neurogranin, Total Tau, AB42, AB40, NF-LIGHT, pTau-181

AD cohort [4] = test: Cognitive testing ADAS-COG in AD cohort; settings: 90 mg QD 7 days
Source text: as §1, §2, §4

[5] = Phase 1b, individual subjects on NTRX-07, Cohorts C and D (90 mg QD)
[6] = Day −2 (baseline), individual subjects
[7] = EOS Visit (Day 14-19), individual subjects

CC1(Cc2ccccc2)COc2cc(C(=O)N3CCCCC3)ccc21 (centres unmarked) [NTRX-07, 3-benzyl-3-methyl-2,3-dihydrobenzofuran-6-carboxylic acid-piperidine amide] was tested. Which “Changes in ECG or safety labs” value ([1]; Phase 1b) did it give?
The value was “No clinically meaningful changes”.

What about the “Dose-limiting toxicities / serious adverse events” value ([1]; Phase 1b, 10, 30, 90 mg oral QD for 7 days) of the same compound?
Its value is “no dose-limiting or serious adverse events; also recorded: safely administered; also recorded: No dose limiting toxicities at any of the tested doses”.

And the “Adverse events observed during trial: Description of Event” value [1, 5]?
Its value is “Subfebrility; also recorded: Heartburn; also recorded: Dry mouth; also recorded: Xerostomia; also recorded: Hypertension; also recorded: Nausea; also recorded: Hypertension,; also recorded: tachycardia; also recorded: Dizziness; also recorded: Presyncope; also recorded: Weakness”.

And the “Adverse events observed during trial: Related to Study Drug?” value [1, 5]?
The value was “Possible (7×) and Probable and None (2×)”.

What about the “Adverse events observed during trial: Severity” value [1, 5] of the same compound?
Its value is “Mild (8×) and Moderate (2×)”.

And the “Orthostatic events observed during trial: Severity” value ([2]; individual subjects on NTRX-07 (Cohort B 30 mg, C and D 90 mg QD))?
Its value is “Mild”.

And the “Primary side effect observed” value ([2]; usually with early doses)?
Its value is “mild transient orthostatic changes in blood pressure”.

And the “Orthostasis: Incidences” value ([2]; treated subjects)?
The value was 16.7%.

What about the “Orthostasis: Subjects who had an incident” value ([2]; treated subjects) of the same compound?
Its value is 16.7%.

What about the “Changes in cognitive scores (MMSE, MOCA)” value (AD cohort [3]) of the same compound?
Its value is “No significant changes in cognitive scores; also recorded: No appreciable changes”.

And the “MOCA Mean (StdDev)” value (AD cohort [3]; Day 8)?
Its value is 19.7 ± 1.8.

And the MOCA (AD cohort [3]; Day 8, individual subjects)?
The MOCA was 22 and 21 and 19 and 20 and 17.

And the “MOCA Mean (StdDev)” value (AD cohort [3]; Day −2 (baseline))?
Its value is 20.5 ± 2.6.

And the MOCA (AD cohort [3]; [6])?
Its MOCA is 22 and 21 and 24 and 18 and 17.

And the “MOCA Mean (StdDev)” value (AD cohort [3]; EOS Day 14-19)?
Its value is 20.7 ± 3.5.

What about the MOCA (AD cohort [3]; [7]) of the same compound?
The MOCA was 25 and 15 and 20 and 23 and 22 and 19.

What about the “ADAS-COG Mean (StdDev)” value (AD cohort [4]; Day 8) of the same compound?
Its value is 12.72 (1.56).

And the ADAS-COG (AD cohort [4]; Day 8, individual subjects)?
Its ADAS-COG is 11.00 and 15.33 and 11.67 and 12.67 and 12.00 and 13.67.

What about the “ADAS-COG Mean (StdDev)” value (AD cohort [4]; Day −2 (baseline)) of the same compound?
Its value is 17.50 (2.83).

What about the ADAS-COG (AD cohort [4]; [6]) of the same compound?
Its ADAS-COG is 17.00 and 18.33 and 13.33 and 22.00 and 18.00 and 16.33.

What about the “ADAS-COG Mean (StdDev)” value (AD cohort [4]; EOS Day 14-19) of the same compound?
The value was 13.17 (3.46).

And the ADAS-COG (AD cohort [4]; [7])?
Its ADAS-COG is 9.33 and 19.33 and 11.00 and 12.00 and 13.00 and 14.33.

And the ADAS-COG trend (AD cohort [4]; immediately post-treatment)?
The ADAS-COG trend was “Trend toward improvement”.
